These results are taken from patent publication US7868007B2, “Triazolopyridine carboxamide derivatives, preparation thereof and therapeutic use thereof” (sanofi-aventis, priority 2007, dated 2011).

The target of series [1] is T1, MGL (monoacyl glycerol lipase) enzyme (Mus musculus, UniProt O35678).
T1 construct: the source of MGL enzyme is a homogenate of mouse brain from which the cerebellum and the medulla oblongata have been removed; from tissue; host or cells: mouse brain homogenate (cerebellum and medulla oblongata removed)
T1 sequence (O35678 1-303): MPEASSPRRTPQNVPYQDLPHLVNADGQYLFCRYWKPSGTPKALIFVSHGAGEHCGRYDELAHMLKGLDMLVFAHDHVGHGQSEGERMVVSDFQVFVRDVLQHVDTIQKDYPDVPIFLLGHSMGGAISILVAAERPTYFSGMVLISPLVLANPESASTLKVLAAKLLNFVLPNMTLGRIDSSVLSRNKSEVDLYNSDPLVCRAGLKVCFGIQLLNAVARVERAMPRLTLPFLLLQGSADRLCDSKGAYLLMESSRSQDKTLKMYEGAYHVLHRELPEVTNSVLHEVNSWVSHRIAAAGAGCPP
The series is described as follows: radioenzymatic assay of MGL inhibition (hydrolysis of [3H] 2-OG by mouse brain homogenate). The format is biochemical. The following applies: 50 μM 2-OG with [3H] 2-OG, 20 minutes preincubation, 20 minutes incubation at ambient temperature, read-out: IC50 (concentration which inhibits 50% of the control enzymatic activity of MGL). As for the experimental part:
The inhibitory activity with respect to MGL is given by the concentration which inhibits 50% of the activity of MGL.
The inhibitory activity was measured in a radioenzymatic assay based on measuring the product of hydrolysis of 2-oleoyl glycerol ([^3H] 2-OG) by MGL. The products of hydrolysis of [^3H] 2-OG, labeled on the glycerol, are oleic acid and [^3H]glycerol, and the source of MGL enzyme is a homogenate of mouse brain from which the cerebellum and the medulla oblongata have been removed. The mouse brains are removed, and stored at −80° C. until they are used or homogenized immediately for twice 5 seconds using a Precellys apparatus at 5000 rpm (Bertin) in a 10 mM tris-HCl, 150 mM NaCl, 1 mM EDTA buffer (pH 8) at 4° C. The concentration of the homogenates is then adjusted to 7.5 μg/μl.
The dilution series of the compounds is prepared from stock solutions at 20 mM in 100% DMSO. […]
Assaying of the MGL activity is carried out in a 96-well microplate in a final reaction volume of 100 μl. […] After stirring for 10 minutes, the microplate is centrifuged for 15 minutes at 4000 g and a 30 μl aliquot of the aqueous phase containing the [^3H]glycerol produced is removed and then counted for 5 minutes by liquid scintillation (Wallac 1450 Microbeta).

By melting point is commonly meant the temperature, or range, at which the solid turns liquid.

On to `O=C(N1CCN(C2c3ccccc3-c3ccccc32)CC1)n1nnc2ncccc21` [Compound 8, [4-(9H-Fluoren-9-yl)piperazin-1-yl][1,2,3]triazolo[4,5-b]pyridin-1-ylmethanone], for which the melting point is 170 to 172 °C (dec.). Consider `O=C(N1CCN(C(c2ccc(F)cc2)c2ccc(F)cc2)CC1)n1nnc2ncc(Cl)cc21` [Compound 5, {4-[Bis(4-fluorophenyl)methyl]piperazin-1-yl}(6-chloro[1,2,3]triazolo[4,5-b]pyridin-1-yl)-methanone], for which the melting point is 167 to 169 °C (dec.). `O=C(N1CCN(C(c2ccc(Cl)cc2)c2ccc(Cl)cc2)CC1)n1nnc2ncccc21` [Compound 4, {4-[Bis(4-chlorophenyl)methyl]piperazin-1-yl}[1,2,3]triazolo[4,5-b]pyridin-1-ylmethanone]: the melting point is 163 to 165 °C (dec.). Regarding `O=C(N1CCN(C2c3ccccc3CCc3ccccc32)CC1)n1nnc2ncccc21` [Compound 7, [4-(10,11-Dihydro-5H-dibenzo[a,d]cyclohepten-5-yl)piperazin-1-yl][1,2,3]triazolo[4,5-b]-pyridin-1-ylmethanone], the melting point is 190 to 194 °C (dec.). Also, the IC50 in series [1] turned out to be 25 nM.

As for `O=C(N1CCN(C(c2ccccc2)c2ccccc2)CC1)n1nnc2ncc(Cl)cc21` [Compound 2, (4-Benzhydrylpiperazin-1-yl)(6-chloro[1,2,3]triazolo[4,5-b]pyridin-1-yl)methanone], the melting point was 173 to 175 °C (dec.). `O=C(N1CCN(C(c2ccccc2)c2ccccc2)CC1)n1nnc2ncccc21` [Compound 1, (4-Benzhydrylpiperazin-1-yl)[1,2,3]triazolo[4,5-b]pyridin-1-ylmethanone]: the melting point is 146 to 148 °C (dec.). In addition, the IC50 in series [1] turned out to be 4 nM. Consider `O=C(N1CCN(C(c2ccc(F)cc2)c2ccc(F)cc2)CC1)n1nnc2ncccc21` [Compound 3, {4-[Bis(4-fluorophenyl)methyl]piperazin-1-yl}[1,2,3]triazolo[4,5-b]pyridin-1-ylmethanone], for which the melting point was 151 to 153 °C (dec.).
